Structures are written as SMILES.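 A five-concentration, 48-hour dose response in 96-well plates underlies each endpoint, interpolated linearly between surrounding concentrations. Abbreviation: GI50, concentration required for 50% inhibition of growth.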 Calls of active or inactive are those of the source. Cut-off read from the data, not from the text of the source: active = GI50 up to about 1.1 µM and inactive = higher. Where only a bound is given, the exact number is not on record here.

Among the test systems are ACHN; CAKI-1; HCC 2998; HCT-15; HT-29; KM12; LOX IMVI; M14; NCI-H460; OVCAR-3; OVCAR-5; PC-3; SK-MEL-2; SNB-75; UACC-257; EKVX; HL-60; RXF 393; SR.
What all share (test): NCI-60 cell line screen, 48 h

For `CSc1scc2c1/C(=N/NC(N)=O)CCC2`, the GI50 in the test on ACHN was > 100 µM (inactive); in the test with CAKI-1, 69.7 µM (inactive); with HCC 2998, > 100 µM (inactive); with HCT-15, more than 100 µM; with HT-29, > 100 µM (inactive); in the test on KM12, 86.1 µM (inactive). The GI50 with LOX IMVI was > 100 µM (inactive); in the test with M14, > 100 µM (inactive); in the test on NCI-H460 it was 94.4 µM (inactive); in the test with OVCAR-3, > 100 µM (inactive); in the test on OVCAR-5 it was > 100 µM (inactive); in the test on PC-3, 93.5 µM (inactive). Besides, the GI50 in the test with SK-MEL-2 is > 100 µM (inactive); with SNB-75, 36.7 µM (inactive); with UACC-257 it was > 100 µM (inactive).

`CCOc1ccc2nc3nc(O)nc(C)c3c(NCCCN(CC)CC)c2c1`: the GI50 was > 100 µM (inactive) in the test with ACHN; > 100 µM (inactive) in the test on CAKI-1; > 100 µM (inactive) in the test with EKVX; > 100 µM (inactive) in the test on HCC 2998; more than 100 µM in the test with HCT-15; > 100 µM (inactive) in the test on HL-60. Further, the GI50 in the test on HT-29, in the test on KM12, with LOX IMVI, in the test with M14, in the test with NCI-H460 and in the test with OVCAR-3 was > 100 µM (inactive) each time. Moreover, the GI50 with OVCAR-5, in the test with PC-3, with RXF 393, with SK-MEL-2, in the test with SNB-75 and in the test with UACC-257 was > 100 µM (inactive) in each case.

On to `COc1cc([C@@H]2c3cc4c(cc3[C@@H](OC3OC5COC(C)OC5C(OC(=O)CN5CCN(C)CC5)C3OC(=O)CN3CCN(C)CC3)C3COC(=O)[C@@H]32)OCO4)cc(OC)c1OC(=O)CN1CCN(C)CC1` (some centres undefined), for which the GI50 was 54.5 µM (inactive) in the test with ACHN; 37.7 µM (inactive) in the test with CAKI-1; > 100 µM (inactive) with EKVX; 32.1 µM (inactive) with HCC 2998; more than 100 µM in the test on HCT-15; 11.5 µM (inactive) with HL-60. Moreover, the GI50 is > 100 µM (inactive) in the test on HT-29; > 100 µM (inactive) with KM12; 36.5 µM (inactive) in the test on LOX IMVI; 55.8 µM (inactive) in the test on M14; 11.2 µM (inactive) with NCI-H460; > 100 µM (inactive) in the test with OVCAR-3. Besides, the GI50 is > 100 µM (inactive) with OVCAR-5; > 100 µM (inactive) in the test on PC-3; > 100 µM (inactive) in the test with RXF 393; > 100 µM (inactive) in the test on SK-MEL-2; 28.5 µM (inactive) in the test on SNB-75; > 100 µM (inactive) with UACC-257.

`CCCCOC(=O)c1cc(C(=CCC[C@H]2CC[C@@]3(C)[C@@H](CC[C@@H]4[C@@H]3CC[C@]3(C)[C@@H](C(C)CCCC(C)C)CC[C@@H]43)C2)c2cc(Cl)c(O)c(C(=O)OCCCC)c2)cc(Cl)c1O` (some centres undefined): the GI50 with CAKI-1 is > 50 µM (inactive); in the test on EKVX it was > 50 µM (inactive); with HCC 2998 it was > 50 µM (inactive); in the test on HCT-15, more than 50 µM; with HL-60, > 50 µM (inactive); in the test on HT-29, > 50 µM (inactive). For the same compound, the GI50 with KM12, in the test with LOX IMVI, with NCI-H460, with OVCAR-3, in the test with PC-3 and in the test on SK-MEL-2 was > 50 µM (inactive) throughout. The GI50 in the test on SNB-75 was > 50 µM (inactive).

Consider `CN(C)C(=S)Nc1nnc(NC23CC4CC(CC(C4)C2)C3)s1.[O-][Cl+3]([O-])([O-])O`, for which the GI50 was 21.8 µM (inactive) in the test on ACHN; 20.1 µM (inactive) in the test with CAKI-1; 23 µM (inactive) in the test on EKVX; 18.9 µM (inactive) with HCC 2998; 13.6 µM in the test on HCT-15; 7.57 µM (inactive) in the test with HL-60. In addition, the GI50 is 5.81 µM (inactive) in the test with HT-29; 18.7 µM (inactive) with KM12; 17.5 µM (inactive) in the test with LOX IMVI; 16 µM (inactive) in the test with M14; 12.6 µM (inactive) with NCI-H460; 18.7 µM (inactive) in the test on OVCAR-3. In addition, the GI50 was 10 µM (inactive) in the test on OVCAR-5; 17.1 µM (inactive) in the test on RXF 393; 18.5 µM (inactive) in the test with SK-MEL-2; 0.1 µM (active) with SNB-75; 15.9 µM (inactive) in the test with SR; 14.5 µM (inactive) in the test with UACC-257.

For the compound `COc1cc(/C=C2\S/C(=N/Nc3nc(-c4ccc(Br)cc4)cs3)NC2=O)cc(OC)c1OC`, the GI50 in the test with ACHN is 11 µM (inactive); with CAKI-1, 18.2 µM (inactive); with EKVX it was 7.8 µM (inactive); in the test with HCC 2998, 16.3 µM (inactive); in the test with HCT-15, 11.3 µM; with HL-60 it was 2.08 µM (inactive). The GI50 is 18.4 µM (inactive) in the test on HT-29; 7.73 µM (inactive) with KM12; 9.29 µM (inactive) in the test on LOX IMVI; 15.6 µM (inactive) in the test on M14; 11.9 µM (inactive) in the test on NCI-H460; 13.6 µM (inactive) in the test with OVCAR-3. The GI50 in the test on OVCAR-5 was 18.2 µM (inactive); in the test on PC-3, 4.03 µM (inactive); in the test on RXF 393, 4.07 µM (inactive); in the test with SK-MEL-2 it was 15.1 µM (inactive); in the test with SNB-75, 9.2 µM (inactive); in the test on UACC-257, 18.2 µM (inactive).

Consider `CC(=O)Oc1c(C)cc2c(c1C)C(C)(C)CN2C(=O)C(C)(C)C`, for which the GI50 in the test with ACHN is > 100 µM (inactive); in the test with EKVX, > 100 µM (inactive); in the test with HCC 2998 it was > 100 µM (inactive); in the test with HCT-15 it was more than 100 µM; with HL-60, 63.8 µM (inactive); in the test on HT-29, 33.1 µM (inactive). Also, the GI50 in the test with KM12 was > 100 µM (inactive); with LOX IMVI it was > 100 µM (inactive); with M14 it was 65.9 µM (inactive); in the test with NCI-H460 it was > 100 µM (inactive); in the test with OVCAR-3 it was 25.2 µM (inactive); with OVCAR-5 it was > 100 µM (inactive). For the same compound, the GI50 in the test on PC-3 is 35.1 µM (inactive); in the test with RXF 393, 84.9 µM (inactive); with SK-MEL-2, > 100 µM (inactive); in the test with SNB-75, 0.504 µM (active); with UACC-257, > 100 µM (inactive).

For `CNC(=O)c1nn[nH]c1Sc1c([N+](=O)[O-])ncn1C`, the GI50 is > 100 µM (inactive) in the test with ACHN; > 100 µM (inactive) in the test on CAKI-1; > 100 µM (inactive) in the test on EKVX; > 100 µM (inactive) in the test with HCC 2998; more than 100 µM in the test with HCT-15; > 100 µM (inactive) with HT-29. Further, the GI50 with KM12, in the test with LOX IMVI, with M14, with NCI-H460, in the test with OVCAR-3 and in the test with OVCAR-5 was > 100 µM (inactive) each time. Besides, the GI50 with PC-3, in the test on RXF 393, with SK-MEL-2 and with UACC-257 was > 100 µM (inactive) in each case.

Regarding `O=C(O)c1ccccc1NC(=S)c1ccccc1`, the GI50 is 24.7 µM (inactive) in the test on ACHN; 43 µM (inactive) in the test on CAKI-1; 37.8 µM (inactive) in the test on EKVX; < 0.01 µM (active) with HCC 2998; 30.3 µM with HCT-15; 34 µM (inactive) with HL-60. Also, the GI50 with HT-29 is 37.8 µM (inactive); in the test on KM12 it was 50.2 µM (inactive); in the test with LOX IMVI, 30.5 µM (inactive); in the test on M14, 70.5 µM (inactive); in the test on NCI-H460, 53.2 µM (inactive); in the test with OVCAR-3, 34.4 µM (inactive). Besides, the GI50 in the test on OVCAR-5 was > 100 µM (inactive); in the test with PC-3 it was 34.5 µM (inactive); in the test with RXF 393, 51.9 µM (inactive); in the test on UACC-257, 29.7 µM (inactive).

As for `CCOC(=O)C1(C)CCc2sc(N)c(C#N)c21` (centres undefined), the GI50 was > 100 µM (inactive) in the test with ACHN; > 100 µM (inactive) in the test with EKVX; > 100 µM (inactive) with HCC 2998; more than 100 µM with HCT-15; > 100 µM (inactive) in the test with HL-60; > 100 µM (inactive) in the test with HT-29. Also, the GI50 in the test with KM12, in the test with M14, in the test with NCI-H460, with OVCAR-5, with PC-3 and in the test with RXF 393 was > 100 µM (inactive) throughout. Moreover, the GI50 in the test on SK-MEL-2, with SNB-75 and in the test on UACC-257 was > 100 µM (inactive) each time.

In the case of `CC1CCC2(O)C3(C)CC4(O)OC2(C1O)C1(O)C3(O)C(OC(=O)c2ccc[nH]2)C(O)(C(C)C)C41C` (centres undefined), the GI50 in the test with ACHN is > 100 µM (inactive); in the test with CAKI-1 it was > 100 µM (inactive); in the test with EKVX, > 100 µM (inactive); in the test with HCC 2998 it was > 100 µM (inactive); in the test with HCT-15, more than 100 µM; with HL-60, > 65.8 µM (inactive). In addition, the GI50 with HT-29, in the test on KM12, with LOX IMVI, in the test with M14, with NCI-H460 and in the test with OVCAR-3 was > 100 µM (inactive) throughout. Besides, the GI50 in the test with OVCAR-5, in the test with PC-3, with RXF 393, in the test with SK-MEL-2, with SNB-75 and in the test with UACC-257 was > 100 µM (inactive) in each case.

`CC(=O)O[C@H]1C(=O)O[C@@H]2C[C@H]3C(C)=CC(=O)[C@@H](O)[C@]3(C)[C@H]3[C@@]4(O)OC[C@]32[C@@H]1[C@@H](C)[C@H]4O`: the GI50 with ACHN was 0.0317 µM (active); with CAKI-1, 0.265 µM (active); in the test on EKVX, 0.0453 µM (active); with HCC 2998, 0.0505 µM (active); with HCT-15 it was 0.0759 µM; with HL-60, 0.0229 µM (active). Further, the GI50 was 0.0518 µM (active) in the test on HT-29; 0.0318 µM (active) in the test on KM12; 0.0321 µM (active) in the test on LOX IMVI; 0.0219 µM (active) in the test with M14; 0.0266 µM (active) in the test on OVCAR-3; 0.348 µM (active) with OVCAR-5. The GI50 with PC-3 is 0.02 µM (active); in the test with RXF 393, 0.0301 µM (active); in the test on SK-MEL-2, 0.0611 µM (active); in the test on SNB-75, 0.0366 µM (active); in the test on UACC-257, 0.0395 µM (active).

For the origin of these results see ChEMBL document CHEMBL1201862, “PubChem BioAssay data set” (2004).
